From ChEMBL document CHEMBL1143131, “Synthesis and anti-HIV activity of GS-9148 (2'-Fd4AP), a novel nucleoside phosphonate HIV reverse transcriptase inhibitor” (Bioorg Med Chem Lett, 2008)

Assays:
[1] = Cytotoxicity against human MT2 cells; format: cell-based
[2] = biological target: Human immunodeficiency virus type 1 reverse transcriptase (Human immunodeficiency virus 1, UniProt Q72547); assay: Inhibition of wild type HIV 3B reverse transcriptase
[3] = test system: Human immunodeficiency virus; assay: Antiviral activity against HIV with reverse transcriptase 6TAMs mutation assessed as fold resistance relative to wild type; format: functional
[4] = test system: Human immunodeficiency virus; assay: Antiviral activity against HIV with reverse transcriptase K65R mutation assessed as fold resistance relative to wild type; format: functional
[5] = test system: Human immunodeficiency virus; assay: Antiviral activity against HIV with reverse transcriptase M184V mutation assessed as fold resistance relative to wild type; format: functional
[6] = test system: Human immunodeficiency virus 1; assay: Antiviral activity against wild type HIV1 3B in MT2 cells; format: functional, organism-based; conditions: Human immunodeficiency virus 1, 3B

Row | SMILES | CC50 [1] [µM] | IC50 [2] [µM] | Activity [3] | Activity [4] | Activity [5] | EC50 [6] [µM]
1 | Nc1ncnc2c1ncn2[C@@H]1O[C@H](OCP(=O)(O)O)C=C1F [GS-9148] | > 1000 | 1.9 | 4.3 | 1.1 | 0.8 | –
2 | Nc1ncnc2c1ncn2[C@H]1C=C[C@@H](OCP(=O)(O)O)O1 | > 1000 | 0.6 | 2.9 | 2.9 | 0.9 | 2.1
3 | C[C@H](Cn1cnc2c(N)ncnc21)OCP(=O)(O)O [TENOFOVIR ANHYDROUS] | > 500 | – | 8.8 | 4.3 | 0.7 | –
4 | Cc1cn([C@H]2C[C@H](N=[N+]=[N-])[C@@H](CO)O2)c(=O)[nH]c1=O [ZIDOVUDINE] | > 200 | – | >50 | 1.2 | 0.7 | 0.16
5 | Nc1ncnc2c1ncn2[C@@H]1C=C[C@H](OCP(=O)(O)O)O1 | > 1000 | – | 13.7 | 3.6 | 7.1 | 5.9
